According to US9458161B1, “TSPO ligands for cancer imaging and treatment” (Vanderbilt University, priority 2011, dated 2016):
Where two headings read alike, the source gives them in different places.

Experiments:
TSPO [1] = molecular target: TSPO (Rattus norvegicus, UniProt P16257); details: for K1/k2: 3-compartment, 4-parameter model; for K1/k2 / k3 / VT: mean ± S.E.; for K1/k2 / k3: N=3; for VT: N=4
Experimental: In this Example Glioma-bearing rats were imaged with [^18F]PBR06 in a microPET system. Dynamic acquisitions were acquired simultaneously upon injection of 70-100 MBq/0.2 mL [^18F]PBR06. Over the course of scanning, arterial blood was collected to derive the input function, with HPLC radiometabolite analysis performed on selected samples for arterial input function correction. Compartmental modeling of the PET data was performed using the corrected arterial input function. Specific tumor cell binding of PBR06 was evaluated by radioligand displacement of [^3H]PK 11195 with PBR06 in vitro and by displacement of [^18F]PBR06 with excess PBR06 in vivo. Immediately following imaging, tumor tissue and adjacent healthy brain were harvested for assay of TSPO protein levels by western blotting and immunohistochemistry.
PET/CT imaging was performed within 24 h of MR imaging in rats with confirmed tumors. Tumor-bearing rats were administered ˜70-100 MBq/0.2 mL [^18F]PBR06 via a jugular catheter while in a microPET Focus 220 (Siemens Preclinical Solutions, Knoxville, Tenn., USA). Dynamic images (90 min) were collected, followed by CT (microCAT II, Siemens Preclinical Solutions) for attenuation correction. For displacement studies, cold PBR06 (10 mg/kg) was injected via jugular catheter 30 min after radiotracer administration.
The dynamic PET acquisition was divided into twelve, five-second frames for the first minute, followed by 89 sixty-second frames for the duration of the scan. Data from all possible lines of response (LOR) were saved in the list mode raw data format. The raw data was then binned into 3D sinograms with a span of 3 and ring difference of 47. The images were reconstructed into transaxial slices (128×128×95) with voxel sizes of 0.095×0.095×0.08 cm^3, after applying scatter and attenuation corrections, using an iterative ordered subsets expectation maximization (OS-EM 2D) algorithm with 16 subsets and 4 iterations. Attenuation correction was accomplished by generating an attenuation map (sinogram) from the CT image. The CT image was first co-registered with the microPET image, segmented into air, soft tissue, and bone, and then projected into sinograms with a span of 47 and ring difference of 23.
Immediately following administration of [^18F]PBR06, arterial blood samples (50 μL) were collected at 10 s intervals during the first minute of scanning, followed by collection at 90 s and 2, 8, 12, 20, 30, 45, 60, 75, and 90 min. Plasma radioactivity was measured by first centrifuging blood samples (50 μL) at 14,000 rpm for 5 min in a microcentrifuge. Next, plasma (15 μL) was removed and measured in a NaI well counter (Capintec, Ramsey, N.J., USA).
Time-activity curves (TACs) were generated by manually segmenting three-dimensional volumes of interest over tumor and contralateral brain using ASIPro (Siemens Preclinical Solutions), avoiding areas of central necrosis if present. The arterial input function (AIF) was computed from plasma sampling during imaging and corrected for metabolism of the parent ligand. A 3-compartment, 4-rate constant kinetic model was used to characterize [^18F]PBR06 pharmacokinetics as previously described. Using the COMKAT software package, model parameters were estimated for constants for influx (K1) and efflux (k2) rates of radioligand diffusion between plasma and tissue compartments, and exchange between specific (k3) and non-specific binding (k4) compartments. Modeling was carried out for whole brain (excluding tumor) and tumor, individually, by fitting TACs of each region.
To evaluate the in vivo TSPO specificity of [^18F]PBR06, we carried out displacement studies in C6-bearing rats using the cold analog, PBR06.

[2] = HPLC radiometabolite analysis of plasma after [18F]PBR06; type: in vivo, rat
Experimental: Blood samples (200 μL) were collected (2, 25, 45 min) for radiometabolite analysis. Following centrifugation, plasma was extracted with acetonitrile:water (340 μL, 7.5:1, v/v). The mixture was centrifuged and the supernatant used for HPLC analysis. Radioanalysis was conducted as is known in the art. Radiochromatographic data were recorded and collected using a radioisotope detector (Bioscan, Washington, D.C., USA), decay-corrected to time zero of each radiochromatogram, and smoothed using a locally weighted scatter plot smoothing (LOWESS) method. The plasma time-activity curve (TAC) was corrected with the fraction of unchanged radioligand.
Arterial blood samples were collected to assay [^18F]PBR06 radiometabolites for correction of the AIF. FIG. 12 illustrates a typical activity corrected reversed-phase HPLC trace of a blood sample collected two minutes following injection of [^18F]PBR06. At this time point we noted the presence of both ^18F^− (retention time 2.8 min) and the parent ligand (10.1 min) in a respective ratio of ˜1:3.

[3] = HPLC radiometabolite analysis of plasma after [18F]DPA-714; type: in vivo, rat; details: mean ± SD
Experimental: Briefly, arterial blood (200 μL) was collected at 2, 12, 30, 60, and 90 min. Following centrifugation, plasma was extracted with acetonitrile:water (340 μL, 7:1, v/v). The mixture was centrifuged and the supernatant used for reversed phase HPLC analysis using 0.1 M aqueous ammonium acetate (NH4)OAc (pH 10) and acetonitrile (30:70; v/v) at 1 mL/min on a C18 Dynamax 250×4.6 mm (Varian) column. Radiochromatographic data were recorded and collected using a radioisotope detector (Bioscan), decay-corrected to time zero of each radiochromatogram, and smoothed using a locally weighted scatter plot smoothing method. The plasma time-activity curve was corrected according to the fraction of unchanged radioligand.

TSPO [4] = molecular target: T1, TSPO (Homo sapiens, UniProt P30536); design: host or cells: glioma patients (Junck et al; Pappata et al.); details: cited from earlier work
T1 sequence (P30536 whole entry): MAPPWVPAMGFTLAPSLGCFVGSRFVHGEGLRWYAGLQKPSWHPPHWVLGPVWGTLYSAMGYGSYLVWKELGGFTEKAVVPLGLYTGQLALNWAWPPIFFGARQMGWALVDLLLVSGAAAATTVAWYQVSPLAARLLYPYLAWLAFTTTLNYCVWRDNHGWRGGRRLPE

TSPO [5] = molecular target: T1, TSPO; details: cited from earlier work
[6] = at 45 minutes, after infusion of PBR06 at 30 minutes

COc1ccc(OC)c(CN(C(=O)C[18F])c2ccccc2Oc2ccccc2)c1 [[^18F]PBR06]
tracer distribution tumor vs contralateral brain (in words) (TSPO [1]; C6 glioma-bearing rats): preferentially accumulate in tumors with modest uptake in contralateral brain | tumor activity after PBR06 infusion, % of maximum/peak tumor uptake (TSPO [1]; PBR06 10 mg/kg i.v. 30 min after tracer): approximately 25% | K1/k2 (TSPO [1]; brain): 6.164 ± 2.049 mL/g | k3 (TSPO [1]; brain): 0.0714 ± 0.0261 min⁻¹ | VT (TSPO [1]; brain): 13.07 ± 3.901 mL/g | k4 (TSPO [1]; brain, mean, N=3 (S.E. in next line)): 0.00945 min⁻¹ | displaceable [18F]PBR06 binding (TSPO [1]; infusion of PBR06 10 mg/kg 30 min after tracer, tumor): approximately 75% | total radioactivity in tumor relative to normal brain (TSPO [1]; last 20 minutes of the PET scan): approximately three- to four-fold higher than normal brain | K1/k2 (TSPO [1]; tumor): 5.947 ± 1.982 mL/g | k3 (TSPO [1]; tumor): 0.3870 ± 0.1592 min⁻¹ | VT (TSPO [1]; tumor): 63.90 ± 3.400 mL/g | free 18F− in plasma ([2]; at 2 minutes after injection): 25% | parent ligand [18F]PBR06 in plasma ([2]; at 2 minutes after injection): 75% | free 18F− in plasma ([2]; at 30 minutes): 62% | parent ligand [18F]PBR06 in plasma ([2]; at 30 minutes): 38% | 18F− in plasma [2, 6]: 43% | fraction of [18F]PBR06 in plasma [2, 6]: 57%

CCN(CC)C(=O)Cc1c(-c2ccc(OCC[18F])cc2)nn2c(C)cc(C)nc12 [[^18F]DPA-714]
% 18F- in plasma ([3]; P.I. time 2 (N=7)): 2 ± 3.3% | % Metabolite (hydrophilic radiometabolite) in plasma ([3]; P.I. time 2 (N=7)): 3 ± 3.7% | % 18F- in plasma ([3]; P.I. time 12 (N=7)): 13 ± 6.7% | % Metabolite (hydrophilic radiometabolite) in plasma ([3]; P.I. time 12 (N=7)): 19 ± 5.8% | % [18F]DPA-714 (parent) in plasma ([3]; P.I. time 12 (N=7)): 68 ± 7.4% | % 18F- in plasma ([3]; P.I. time 30 (N=7)): 37 ± 5.4% | % Metabolite (hydrophilic radiometabolite) in plasma ([3]; P.I. time 30 (N=7)): 19 ± 8.8% | % [18F]DPA-714 (parent) in plasma ([3]; P.I. time 30 (N=7)): 44 ± 8.9% | % 18F- in plasma ([3]; P.I. time 60 (N=7)): 50 ± 15.0% | % Metabolite (hydrophilic radiometabolite) in plasma ([3]; P.I. time 60 (N=7)): 23 ± 7.3% | % [18F]DPA-714 (parent) in plasma ([3]; P.I. time 60 (N=7)): 27 ± 6.2% | % 18F- in plasma ([3]; P.I. time 90 (N=5)): 64 ± 12.1% | % Metabolite (hydrophilic radiometabolite) in plasma ([3]; P.I. time 90 (N=5)): 14 ± 3.8% | % [18F]DPA-714 (parent) in plasma ([3]; P.I. time 90 (N=5)): 22 ± 17.8%

[11CH3]N1C(=O)CN=C(c2ccc(Cl)cc2)c2cc(Cl)ccc21 [[^11C]Ro5-4864]
radioactivity in tumor tissue vs normal brain (in words) (TSPO [4]; human gliomas, PET (Junck et al.)): failed to demonstrate higher levels of radioactivity in tumor tissue than in normal brain

CN1C(=O)CN=C(c2ccc(Cl)cc2)c2cc(Cl)ccc21 [Ro5-4864]
in vitro affinity (in words) (TSPO [5]): in vitro affinity in the low nanomolar range

CCC(C)N(C)C(=O)c1cc2ccccc2c(-c2ccccc2Cl)n1 (stereo not shown) [PK 11195]
in vitro affinity (in words) (TSPO [5]): in vitro affinity in the low nanomolar range

CC[C@@H](C)N([11CH3])C(=O)c1cc2ccccc2c(-c2ccccc2Cl)n1 [[^11C]PK 11195]
displaceable fraction of tracer with nonradioactive ligand (TSPO [4]; glioma patient (Pappata et al.)): less than 30% | patients with significantly elevated uptake in gliomas vs contralateral normal brain (TSPO [4]; human gliomas (Junck et al.)): 8/10 | tumor/gray matter ratio (TSPO [4]; human gliomas, in 3/10 patients (Junck et al.)): ~2
